# In patent US10139420B2, “Methods for treating vaso-occlusive crisis using non-modified annexin V” (ISNERM (Institut National de la Sante et de la Recherche …, priority 2011, dated 2018):
# How the values were obtained:
# [1] = test system: SCD patients; conditions: long term treatment; cited from earlier work
# [2] = test system: wild type mice; assay: Circulating PS+ MP in platelet-free plasma by FACS (annexin-V labeling), wild type mice; format: in vivo, mouse; conditions: TSP1 injection (1 mg/kg), within 5 minutes, vs control
# Procedure: (§1) We characterized the induction of VOC in SAD transgenic mice (18, 19) according to our previously published method, in response to the intravenous administration of TSP1 (1 mg/kg), TSP1-derived peptides 4N1-1 or 4N1-2, or purified erythrocyte MP. Briefly, mice were anesthetized with isoflurane and monitored to prevent any cardiorespiratory depression. Mice were shaved and placed in the decubitus position on a heating blanket (38° C.). We used a Vivid 7 echograph (GE Medical Systems®, Horten, Norway) equipped with a 12-MHz linear transducer (12 L). […] A pulsed Doppler spectrum was recorded and peak systolic, end-diastolic and time-average mean BFV were measured in the renal artery, with Doppler beam angle correction. To calculate cardiac output, spatial flow profiles were analyzed in parasternal long-axis B-mode images of the pulmonary artery and BFV were measured as above. […] Circulating MP were quantified by FACS.
# (§2) Netherlands) in the absence or presence of TSP1 (25 μg/ml), or TSP1-derived peptides 4N1-1 or 4N1-2 (25 μM). […] Erythrocytes were immediately separated and supernatant PS^+ MP quantified by FACS. […] MP concentrations were determined as previously described (20). […] MP were analyzed on a Coulter EPICS XL flow cytometer (Beckman Coulter). […] MP-size events were analyzed in FL/FSC fluorescence dot plots to determine annexin-V labeling. […]
# [3] = test system: SAD transgenic mice; assay: Vaso-occlusive crises in mice: renal artery blood flow velocity by Echo-Doppler, cardiac output, renal histology; format: in vivo, mouse; conditions: for reduction in the mean blood flow velocity of the right renal arteries: TSP1 1 mg/kg intravenous
# Procedure: We characterized the induction of VOC in SAD transgenic mice (18, 19) according to our previously published method, in response to the intravenous administration of TSP1 (1 mg/kg), TSP1-derived peptides 4N1-1 or 4N1-2, or purified erythrocyte MP. Briefly, mice were anesthetized with isoflurane and monitored to prevent any cardiorespiratory depression. Mice were shaved and placed in the decubitus position on a heating blanket (38° C.). We used a Vivid 7 echograph (GE Medical Systems®, Horten, Norway) equipped with a 12-MHz linear transducer (12 L). The ultrasound probe was placed on the left side of the abdomen for examination of renal arteries, or in left lateral decubitus for cardiac output acquisition with transducer on the chest. Data were transferred on-line to an EchoPAC ultrasound image analysis workstation (GE Medical Systems®). Two-Dimensional ultrasound imaging of the abdomen in left-sided longitudinal B-mode allowed kidney width and height measurements. Color-coded blood flow detection by Doppler enabled renal arteries to be localized. A pulsed Doppler spectrum was recorded and peak systolic, end-diastolic and time-average mean BFV were measured in the renal artery, with Doppler beam angle correction. To calculate cardiac output, spatial flow profiles were analyzed in parasternal long-axis B-mode images of the pulmonary artery and BFV were measured as above. The following formula was applied: CO=[(V^mean·60)·(π·(Dpa/2^2)], where CO is the cardiac output in ml/minute, V^mean is the mean time-averaged BFV in cm/s and Dpa is the pulmonary artery diameter in cm. Kidney sizes and BFV were determined by the same investigator, as means of 5 to 8 measurements. Repeatability for cardiac output measurements was verified. We controlled and confirmed that kidney size was similar between SAD and wild type mice. After sacrifice, kidneys were dissected, dehydrated, mounted in paraffin, sectioned and stained by Masson trichrome. Vascular congestion was observed by phase-contrast microscopy, as large erythrocyte aggregates occluding kidney capillaries and larger vessels. In some experiments, TSP1 (1 mg/kg) or control BSA (1 mg/kg) were injected. After 5 minutes, mice were terminally anesthetized by pentobarbital overdose. Whole blood was collected through cardiac puncture, centrifuged (400 g, 15 minutes) to eliminate erythrocytes and leukocytes, and double centrifuged (12500 g, 5 minutes) to eliminate platelets with minimal activation. Supernatants were considered platelet-free plasma (PFP). Circulating MP were quantified by FACS.
# We evaluated the concept that TSP1 influences VOC during SCD in vivo. We used SAD transgenic mice that express a mutated human hemoglobin β-chain known to cause sickle cell formation and sensitivity to VOC (18, 19).
# [4] = test system: SAD mouse erythrocytes; assay: Echinocyte conversion and MP shedding by isolated erythrocytes (LORCA ektacytometer, microscopy, FACS), SAD; format: cell-based
# Procedure: (§3) Mouse blood was obtained through retro-orbital sinus puncture, mixed with anti-coagulant heparin buffer (5 UI/ml), and collected on citrated tubes. Blood diluted 1:1 with PBS (Gibco-Life Sciences) was placed onto histopaque-1083 (Sigma) density gradients for centrifugation (600 g, 25 minutes). Erythrocyte pellets were resuspended, washed in DMEM and stored for up to 4 hours at room temperature. Erythrocyte surface CD47 expression was assessed by FACS. Fresh RBC were washed and blocked with PBS-BSA 5% for 30 min and immunoreacted with mouse-specific fluoroisothiocyanate (FITC)-coupled anti-CD47 monoclonal antibody (clone mIAP301; BD Biosciences, Le Pont de Claix, France), or matched irrelevant IgG2aκ isotype for 45 min in 2% PBS-BSA. Erythrocytes were washed in PBS-BSA 2% prior to FACS analysis. Erythrocyte phenotypes were analyzed by […] electronic microscopy. Briefly, mouse erythrocytes were fixed with glutaraldehyde 1% and paraformaldehyde 4%, dehydrated and embedded in Epon™ epoxy resin. Sections contrasted with uranyl acetate and lead citrate were examined with a JEOL JEM 1010 microscope. Average apparent spicule number was determined by direct counting in 80 to 120 cells per condition.
# (§4) To trigger MP shedding, erythrocyte were suspended in polyvinylpyrrolidone (31 mPa.s) and placed in a rotating type LORCA ektacytometer (R&R Mechatronics, Hoorn, The
# (§5) Netherlands) in the absence or presence of TSP1 (25 μg/ml), or TSP1-derived peptides 4N1-1 or 4N1-2 (25 μM). Shear rate was applied according to the builder's program (1500 s^−1; 2.5 minutes). Erythrocytes were immediately separated and supernatant PS^+ MP quantified by FACS. Concentrated MP stocks were generated from 10 to 20 ml of supernatant from erythrocytes suspended in RPMI-1640 (4.10^6/ml) and treated with 4N1-1. Suspensions were centrifuged at 400 g for 15 min to discard cells, and ultracentrifuged at 20500 g for 45 min to pellet MP, which were resuspended in filtered (0.2 μm) DMEM and stored at −80° C. MP concentrations were determined as previously described (20). Briefly, MP were labeled with 2 μl FITC-conjugated annexin-V (Roche Diagnostics, France) diluted in 100 μl reaction buffer with 5 mM CaCl2. CaCl2 was omitted in negative controls. MP were analyzed on a Coulter EPICS XL flow cytometer (Beckman Coulter). MP were identified in forward light scatter (FSc) and side-angle light scatter (SSc) intensity dot plots set at logarithmic gain, as events of 0.1-1 μm in diameter. MP-size events were analyzed in FL/FSC fluorescence dot plots to determine annexin-V labeling. MP concentration was determined with respect to calibrated fluorescent microbeads (Flowcount). To determine erythrocyte origin, MP were double labeled with rat PE-Cy7-coupled mouse-specific anti-Ter119 antibody (Biolegend via Ozyme, France), or matched irrelevant IgG2bκ isotype.
# [5] = test system: wild type mouse erythrocytes; assay: Echinocyte conversion and MP shedding by isolated erythrocytes (LORCA ektacytometer, microscopy, FACS), wild type; format: cell-based; conditions: under shear, TSP1 (25 μg/ml), within minutes
# Procedure: as §3, §4, §5
# [6] = test system: wild type mice; assay: Vaso-occlusive crises in mice: renal artery blood flow velocity by Echo-Doppler (wild type); format: in vivo, mouse
# Procedure: as §1, with “L). The ultrasound probe was placed on the left side of the abdomen for examination of renal arteries, or in left lateral decubitus for cardiac output acquisition with transducer on the chest. Data were transferred on-line to an EchoPAC ultrasound image analysis workstation (GE Medical Systems®). Two-Dimensional ultrasound imaging of the abdomen in left-sided longitudinal B-mode allowed kidney width and height measurements.” for “L).”
# [7] = test system: SAD mice; assay: Circulating PS+ MP in platelet-free plasma by FACS (annexin-V labeling), SAD mice; format: in vivo, mouse; conditions: SAD mice, TSP1 injection (1 mg/kg), within 5 minutes, vs control SAD
# Procedure: as §1, §2
# [8] = after intravenous injection (TSP1 1 mg/kg; MP 300.10^3 MP/mouse)
# [9] = TSP1 and shear stress, vs control (discussion)
Compound,long term safety [1],proportion of SCD patients in whom treatment is effective [1],raise in plasma PS+ MP [2] [fold],reduction in the mean blood flow velocity of the right renal arteries ([3]; after 5 minutes) [%],reduction in the mean blood flow velocity of the right renal arteries ([3]; rapid) [%],"drop in renal perfusion ([3]; TSP1 injection, within minutes) [%]","diastolic and mean blood flow velocities [3, 8]","renal histology after Masson trichrome stain [3, 8]","systolic blood flow velocity [3, 8]","effect on sickle cells ([4]; SAD erythrocytes, TSP1 or peptide)","MP shedding by SAD erythrocytes [4, 9]","proportion of SAD echinocytes [4, 9]","increase in SAD echinocytes ([4]; under shear, TSP1 (25 μg/ml) or peptide (25 μM), vs control) [%]",proportion of wild type echinocytes reached [5] [%],raise in the proportion of wild type echinocytes [5],"systolic, diastolic and mean blood flow velocities ([6]; TSP1 1 mg/kg intravenous)",renal perfusion ([6]; TSP1 injection),increase in circulating PS+ MP [7] [fold]
NC(=O)NO [hydroxy-urea],presumptions of carcinogenesis in the long term,about 40%,–,–,–,–,–,–,–,–,–,–,–,–,–,–,–,–
TSP1: Human recombinant TSP1 produced by EMP-Genetech (Germany),–,–,3,35,20,30,dramatically decreased,red blood cells aggregates and vascular congestion,unchanged,did not affect sickle cells,doubled,doubled,50,30,over 10 fold,remained unchanged,did not modify renal perfusion,3
